Data: patent publication US20230049572A1, “FORMULATION, COMPOSITION OR FOODSTUFF ADDITIVES FOR THE MODIFICATION OF GLYCEMIC RESPONSE METHODS OF MANUFACTURING AND USING THE SAME” (HOOW FOODS PTE. LTD., priority 2019, published 2023)
Where two headings read alike, the source gives them in different places.

Columns and labels:
[1] = per dose / per meal; cited from earlier work
[2] = target: T1, bakers yeast a-glucosidase (Saccharomyces cerevisiae, UniProt P53341); test: In vitro flavonoid inhibition of alpha-glucosidase (pNPG); format: biochemical
T1 construct: purchased Sigma-Aldrich
Protocol: The alpha-glucosidase inhibition was determined using purified alpha-glucosidase from yeast. An alpha-glucosidase reaction mixture contained 2.9 mM p-nitrophenyl-α-d-glucopyranoside (pNPG) (Sigma-Aldrich), 0.25 ml of flavonoid in DMSO and 0.6 U/ml of bakers yeast a-glucosidase (Sigma-Aldrich) in sodium phosphate buffer, pH 6.9. […] The reaction mixtures were incubated at 25° C. for 5 min, after which the reaction was stopped by boiling for 2 min. Absorbance of the resulting p-nitrophenol (pNP) were spectrophotometry determined at 405 nm and was considered directly proportional to the activity of the enzyme. Glucosidase activity inhibition was determined as percentage of control as follows:
In order to eliminate background readings, the absorbance of the flavenoid without substrate and enzyme was subtracted from absorbance of the flavonoid and substrate mixture as follows: Corrected A405 test samples=A405 flavonoid and substrate—A405 flavonoid alone (background).
The activity in controls (with a-glucosidase but without inhibitor) was considered to be 100%. […] Different flavonoids were compared on the basis of their ICso values estimated from the dose response curves.

alpha amylase = test: Inhibition of alpha amylase (similar studies); format: biochemical
[3] = pNPG 2.9 mM, pH 6.9, 25° C., 5 min, read-out: IC50, inhibition of yeast alpha-glucosidase

T1 sequence (P53341 whole entry): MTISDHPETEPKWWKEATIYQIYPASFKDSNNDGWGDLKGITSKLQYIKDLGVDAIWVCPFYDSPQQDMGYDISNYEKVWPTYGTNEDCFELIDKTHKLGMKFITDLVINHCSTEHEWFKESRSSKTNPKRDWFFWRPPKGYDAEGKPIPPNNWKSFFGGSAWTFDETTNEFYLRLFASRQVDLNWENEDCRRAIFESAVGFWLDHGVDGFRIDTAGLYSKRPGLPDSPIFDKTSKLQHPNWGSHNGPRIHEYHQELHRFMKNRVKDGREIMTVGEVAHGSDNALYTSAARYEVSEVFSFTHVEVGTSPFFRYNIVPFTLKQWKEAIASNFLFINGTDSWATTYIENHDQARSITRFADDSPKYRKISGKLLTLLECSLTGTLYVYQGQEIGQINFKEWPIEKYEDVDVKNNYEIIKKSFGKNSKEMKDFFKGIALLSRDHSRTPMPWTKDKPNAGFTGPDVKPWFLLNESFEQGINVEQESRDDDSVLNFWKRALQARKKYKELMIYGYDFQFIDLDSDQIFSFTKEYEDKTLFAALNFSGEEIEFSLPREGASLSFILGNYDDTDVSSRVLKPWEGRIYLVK

SMILES | IC50 [2] | enzyme inhibition (in words) [2] | inhibition of amylase (in words) (alpha amylase) | further results
OC[C@H]1NC[C@H](O)[C@@H](O)[C@@H]1O [1-DNJ, 1-deoxynojirimycin] | – | – | – | upper efficacy limit / saturation dose above which no further reduction in glycemic response is obtained [1]: 250 mg
O=c1cc(-c2ccc(O)cc2)oc2cc(O)cc(O)c12 [Apigenin] | 90 µM | – | – | –
O=c1cc(-c2ccccc2)oc2cc(O)c(O)c(O)c12 [Baicalein] | 58 µM | – | – | –
O=c1cc(-c2ccccc2)oc2cc(O)cc(O)c12 [Chrysin] | – | – | – | inhibition at 200 µM ([2]; read-out: inhibition of yeast alpha-glucosidase at fixed concentration): < 20%
O=C1c2c(O)cc(O)cc2O[C@H](c2cc(O)c(O)c(O)c2)[C@H]1O [Dihydromyricetin, (2R,3R)-3,5,7-Trihydroxy-2-(3,4,5-trihydroxyphenyl)-2,3-dihydrochromen-4-one] | 4 µM | powerful enzyme inhibitors | effective at inhibiting amylase | –
O=c1cc(-c2ccc(O)c(O)c2)oc2cc(O)cc(O)c12 [Luteolin] | – | – | – | IC50 [2, 3]: 35 µM
O=c1c(O)c(-c2cc(O)c(O)c(O)c2)oc2cc(O)cc(O)c12 [Myricetin, 3,5,7-Trihydroxy-2-(3,4 trihydroxyphenyl)-4-chromenone] | 3.6 µM | powerful enzyme inhibitors | effective at inhibiting amylase | –
O=C(CCc1ccc(O)cc1)c1c(O)cc(O)cc1O [Phloretin] | – | – | – | IC50 [2, 3]: 96 µM
O=c1c(O)c(-c2ccc(O)c(O)c2)oc2cc(O)cc(O)c12 [Quercetin, 2-(3,4-dihydroxyphenyl)-3,5,7-trihydroxy-4H-chromen-4-one] | – | powerful enzyme inhibitors | effective at inhibiting amylase | –
